The record followed here is patent US5962487A, “Antipicornaviral compounds and methods for their use and preparation” (Agouron Pharmaceuticals, Inc., priority 1997, dated 1999).

One series concerns HRV-14. Kind of series: Antirhinoviral HI-HeLa Cell Culture Assay (cell protection, XTT), HRV-14. In kind it is cell-based, human rhinovirus. Conditions: for TI: CC50/EC50, HRV serotype-14, 2880 min; for EC50: Rhinovirus B, HRV14, 48 h, HRV serotype-14 infected HI-HeLa cells, XTT, two days. In a few lines: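 HI-HeLa cells infected at m.o.i. 0.13 (or mock-infected), 8×10^5 cells/mL, incubated with compounds for two days; XTT/PMS formazan read at 450/650 nm. EC50 is the concentration restoring formazan in infected cells to 50% of compound-free mock-infected; CC50 is 50% decrease in mock-infected cells; TI = CC50/EC50.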
For orientation: Formazan colour is commonly taken as a measure of viable cells.

Series [1] is described as follows: in vitro. Format: cell-based. The settings on record: human, hi-hela cells. In a few lines:
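HI-HeLa cells infected with HRV-14 at m.o.i. 0.13 or mock-infected, incubated with compounds for two days; XTT/PMS formazan read at 450/650 nm. EC50 as concentration restoring formazan to 50% of mock-infected level; CC50 from mock-infected cells; TI = CC50/EC50.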

A further series deals with CVB-3. Description: Anticoxsackieviral HI-HeLa Cell Culture Assay, CVB-3. Format: cell-based, Coxsackie strain B-3. The settings on record: 24 h; CVB-3 infection of Hi-HeLa cells, XTT, one day. The protocol:
(§1) The ability of compounds to protect cells against CVA-21 or CVB-3 infection was measured by the XTT dye reduction method. Briefly, HI-HeLa cells were infected with CVA-21 or CVB-3 at a multiplicity of infection (m.o.i.) of 0.05 (CVA-21) and 0.08 (CVB-3) or mock-infected with medium only. Infected or uninfected cells were resuspended at 4×10^4 cells per mL and incubated with appropriate concentrations of drug. One day later, XTT/PMS was added to test plates, and the amount of formazan produced was quantified spectrophotometrically at 450/650 nm. The EC50 was calculated as the concentration of drug that increased the percentage of formazan production in drug-treated, virus-infected cells to 50% of that produced by drug-free, uninfected cells. The 50% cytotoxic dose (CC50) was calculated as the concentration of drug that decreased the percentage of formazan produced in drug-treated, uninfected cells to 50% of that produced in drug-free, uninfected cells. The therapeutic index (TI) was calculated by dividing the CC50 by the EC50.
(§2) The Coxsackie strains A-21 (CVA-21) and B-3 (CVB-3) were purchased from American Type Culture Collection (ATCC). Virus stocks were propagated and antiviral assays were performed in HI-HeLa cells (ATCC). Cells were grown in Minimal Essential Medium with 10% fetal bovine serum.

For the next series, the system named is CVA-21. Description: Anticoxsackieviral HI-HeLa Cell Culture Assay, CVA-21. In kind it is cell-based, Coxsackie strain A-21. Conditions: 24 h; CVA-21 infection of Hi-HeLa cells, XTT, one day. The protocol: as §1, §2
The nature of series [2]: in vitro. Format: cell-based. The settings on record: human, hi-hela cells. On the procedure: as §1, §2
This is another data set of the same source.

The next series deals with HI-HeLa cells. Description: in vitro. Format: cell-based. Conditions: human, 24 h. On the procedure:
as §1, §2

A further series has as its system ECHO-11. Kind of series: Echovirus-11 MRC5 Cell Culture Assay. In kind it is cell-based, Echovirus strain 11. The settings on record: Echovirus, 24 h; ECHO-11 infection of MRC5 cells, XTT, one day. On the procedure: (§3) The Echovirus strain 11 (ECHO-11) and Enterovirus strain 70 (ENT-70) were purchased from American Type Culture Collection (ATCC). Virus stocks were propagated and antiviral assays were performed in MRC5 cells (ATCC). Cells were grown in Minimal Essential Medium with 10% fetal bovine serum.
as §1, with “ECHO-11” for “CVA-21”, “ENT-70” for “CVB-3”, “MRC5” for “HI-HeLa”, “0.0013 (ECHO-11)” for “0.05 (CVA-21)”, “0.0017 (ENT-70)” for “0.08 (CVB-3)”, “2×10^4” for “4×10^4”

The test system of a further series is ENT-70. Description: Enterovirus-70 MRC5 Cell Culture Assay. In kind it is cell-based, Enterovirus strain 70. The settings on record: Enterovirus, 24 h; ENT-70 infection of MRC5 cells, XTT, one day. The protocol:
as §3
as §1, with “ECHO-11” for “CVA-21”, “ENT-70” for “CVB-3”, “MRC5” for “HI-HeLa”, “0.0013 (ECHO-11)” for “0.05 (CVA-21)”, “0.0017 (ENT-70)” for “0.08 (CVB-3)”, “2×10^4” for “4×10^4”

A short description of series [3]: in vitro. Format: cell-based. The settings on record: human, mrc5 cells. On the procedure:
as §3
as §1, with “ECHO-11” for “CVA-21”, “ENT-70” for “CVB-3”, “MRC5” for “HI-HeLa”, “0.0013 (ECHO-11)” for “0.05 (CVA-21)”, “0.0017 (ENT-70)” for “0.08 (CVB-3)”, “2×10^4” for “4×10^4”

Another series has as its system MRC5 cells. Kind of series: in vitro. Conditions: human, mrc5 cells, 24 h. In kind it is cell-based. The protocol: as §3
as §1, with “ECHO-11” for “CVA-21”, “ENT-70” for “CVB-3”, “MRC5” for “HI-HeLa”, “0.0013 (ECHO-11)” for “0.05 (CVA-21)”, “0.0017 (ENT-70)” for “0.08 (CVB-3)”, “2×10^4” for “4×10^4”

Broadly, the EC50 is the concentration at which the effect is half-maximal. The term CC50 denotes the concentration that lowers cell viability or growth by half. The low end stands for greater toxicity to the cells, the high end for lower toxicity to the cells.

Bounds are passed on as bounds.

For `CCOC(=O)c1ccc(OCCC2CCN(c3ccc(C)nn3)CC2)cc1` [Pirodavir, reference compound], the TI with HRV-14 is given as > 300. The EC50 with HRV-14 was 0.03 µM; with CVB-3 it was > 100 µM; with CVA-21, > 100 µM; with ECHO-11 it was > 100 µM; with ENT-70, > 100 µM. For the same compound, the CC50 at 48 h in “in vitro [1]” is > 10 µM. In addition, the CC50 at 24 h in the series “in vitro [2]” and in the series “in vitro [3]” was > 100 µM each time. Moreover, the CC50 with HI-HeLa cells and in the series with MRC5 cells was > 100 µM throughout.
`Cc1cc(CCCCCOc2c(Cl)cc(C3=NCCO3)cc2Cl)on1` [WIN 54954, reference compound]: in the series on HRV-14, the TI is given as > 30. The EC50 was 2.13 µM in the series with HRV-14; > 100 µM with CVB-3; > 100 µM in the series on CVA-21; > 100 µM in the series on ECHO-11; > 100 µM in the series on ENT-70. The 50% cytotoxic concentration (CC50) at 48 h in the series “in vitro [1]” is > 63 µM. Besides, the CC50 at 24 h in the series “in vitro [2]” and in “in vitro [3]” was > 100 µM each time. Besides, the CC50 in the series on HI-HeLa cells and in the series on MRC5 cells was > 100 µM throughout.
